Assay results: patent EP2607478A1, “Phenanthroline treated MSC” (Universiteit Twente, priority 2011, dated 2013)

Tested on: MSCs
Assay: Whole genome expression analysis (Illumina microarray) of treated MSCs
Format: cell-based, Human
Method: MSCs were seeded in T25 flasks at 5000 cells/cm^2 and allowed to attach overnight in proliferation medium. […] After 48 hours, RNA was isolated as described above. From 500 ng of RNA, cRNA was synthesized using the Illumina TotalPrep RNA amplification Kit (Ambion), according to the manufacturer's protocol and the quality of RNA and cRNA was verified on a Bioanalyzer 2100 (Agilent). Microarrays were performed using Illumina HT-12 v4 expression Beadchips, according to the manufacturer's protocol. Briefly, 750 ng of cRNA was hybridized on the array overnight after which the array was washed and blocked. Then, by addition of streptavidin Cy-3 a fluorescent signal was developed. Arrays were scanned on an Illumina iScan reader and raw intensity values were background corrected in GenomeStudio (Illumina). Further data processing and statistical testing were performed with R and Bioconductor statistical software (www.bioconductor.org), using package lumi. Raw intensity values were transformed using variance stabilization and a quantile normalization was performed. A linear modelling approach with empirical Bayesian methods, as implemented in Limma package (54), was applied for differential expression analysis of the resulting probe-level expression values. A gene list, containing only those genes with an absolute 1.5-fold change between different treatments, was uploaded to Ingenuity Pathway Analysis (IPA) software and used for core analysis. Pathways or networks with a p-value of 0.05 were considered statistically significant.

c1cnc2c(c1)ccc1cccnc12 [PHE, 1, 10-phenanthroline]
logFC(D142_PHE - D142_BAS) DLX5 (ProbeID ILMN_1759598): -2,28 | logFC(D142_PHE - D142_BAS) C4orf18 (ProbeID ILMN_1761941): -2,15 | logFC(D142_PHE - D142_BAS) AK3L1 (ProbeID ILMN_1764090): 3,40 | logFC(D142_PHE - D142_BAS) JARID2 (ProbeID ILMN_1764177): 2,12 | logFC(D142_PHE - D142_BAS) MUM1 (ProbeID ILMN_1764764): -2,05 | logFC(D142_PHE - D142_BAS) OLFML2B (ProbeID ILMN_1765557, PHE vs BAS): -3,04 | logFC(D142_PHE - D142_BAS) LOC399942 (ProbeID ILMN_1765701, PHE vs BAS): -2,98 | logFC(D142_PHE - D142_BAS) ENO2 (ProbeID ILMN_1765796): 4,72 | logFC(D142_PHE - D142_BAS) KCNK2 (ProbeID ILMN_1765990, PHE vs BAS): -2,82 | logFC(D142_PHE - D142_BAS) C10orf10 (ProbeID ILMN_1767556): 3,71 | logFC(D142_PHE - D142_BAS) HIST2H2AC (ProbeID ILMN_1768973): 3,39 | logFC(D142_PHE - D142_BAS) ISOC2 (ProbeID ILMN_1769158): -2,08 | logFC(D142_PHE - D142_BAS) KRT34 (ProbeID ILMN_1770228): 2,77 | logFC(D142_PHE - D142_BAS) CNN2 (ProbeID ILMN_1770290, PHE vs BAS): -3,30 | logFC(D142_PHE - D142_BAS) ANGPTL2 (ProbeID ILMN_1772612, PHE vs BAS): -2,93 | logFC(D142_PHE - D142_BAS) EML3 (ProbeID ILMN_1772644): -2,23 | logFC(D142_PHE - D142_BAS) ZNF395 (ProbeID ILMN_1772876): 3,66 | logFC(D142_PHE - D142_BAS) GAS1 (ProbeID ILMN_1772910, PHE vs BAS): -3,75 | logFC(D142_PHE - D142_BAS) C16orf72 (ProbeID ILMN_1773407): 2,40 | logFC(D142_PHE - D142_BAS) LOC441054 (ProbeID ILMN_1774390): 2,68 | logFC(D142_PHE - D142_BAS) FBLN2 (ProbeID ILMN_1774602, PHE vs BAS): -2,40 | logFC(D142_PHE - D142_BAS) SMOX (ProbeID ILMN_1775380): 2,29 | logFC(D142_PHE - D142_BAS) SLC2A3 (ProbeID ILMN_1775708): 3,23 | logFC(D142_PHE - D142_BAS) BTG1 (ProbeID ILMN_1775743): 2,36 | logFC(D142_PHE - D142_BAS) MYL9 (ProbeID ILMN_1776953): -2,25 | logFC(D142_PHE - D142_BAS) STAT1 (ProbeID ILMN_1777325): -2,01 | logFC(D142_PHE - D142_BAS) LOC731007 (ProbeID ILMN_1777499): 2,46 | logFC(D142_PHE - D142_BAS) KCTD11 (ProbeID ILMN_1777513): 3,02 | logFC(D142_PHE - D142_BAS) LOC644774 (ProbeID ILMN_1779258): 3,09 | logFC(D142_PHE - D142_BAS) CPA4 (ProbeID ILMN_1784294): 5,44 | logFC(D142_PHE - D142_BAS) TUBA4A (ProbeID ILMN_1784300): 2,80 | logFC(D142_PHE - D142_BAS) SPOCD1 (ProbeID ILMN_1784948, PHE vs BAS): -3,46 | logFC(D142_PHE - D142_BAS) PRKD1 (ProbeID ILMN_1785891, PHE vs BAS): -2,51 | logFC(D142_PHE - D142_BAS) UHRF1 (ProbeID ILMN_1786065): -2,25 | logFC(D142_PHE - D142_BAS) PSME2 (ProbeID ILMN_1786612, PHE vs BAS): -2,64 | logFC(D142_PHE - D142_BAS) MFAP2 (ProbeID ILMN_1787981): -2,29 | logFC(D142_PHE - D142_BAS) COL11A1 (ProbeID ILMN_1789507, PHE vs BAS): -3,53 | logFC(D142_PHE - D142_BAS) GBE1 (ProbeID ILMN_1789702): 2,68 | logFC(D142_PHE - D142_BAS) Mar-04 (ProbeID ILMN_1789991): 2,06 | logFC(D142_PHE - D142_BAS) PRRX2 (ProbeID ILMN_1790338, PHE vs BAS): -2,93 | logFC(D142_PHE - D142_BAS) C6orf125 (ProbeID ILMN_1790461): -2,25 | logFC(D142_PHE - D142_BAS) LUM (ProbeID ILMN_1790529, PHE vs BAS): -3,46 | logFC(D142_PHE - D142_BAS) CRISPLD2 (ProbeID ILMN_1790689): -2,32 | logFC(D142_PHE - D142_BAS) PNMA2 (ProbeID ILMN_1790778): 2,46 | logFC(D142_PHE - D142_BAS) CXCL12 (ProbeID ILMN_1791447, PHE vs BAS): -3,48 | logFC(D142_PHE - D142_BAS) DPYSL4 (ProbeID ILMN_1792356): 3,91 | logFC(D142_PHE - D142_BAS) TMEM158 (ProbeID ILMN_1792455): 3,06 | logFC(D142_PHE - D142_BAS) HIST1H2AC (ProbeID ILMN_1792689): 2,10 | logFC(D142_PHE - D142_BAS) SERTAD1 (ProbeID ILMN_1794017): 2,93 | logFC(D142_PHE - D142_BAS) NDUFS8 (ProbeID ILMN_1794132): -2,07 | logFC(D142_PHE - D142_BAS) HAS3 (ProbeID ILMN_1794501, PHE vs BAS): -2,42 | logFC(D142_PHE - D142_BAS) CAMK2N1 (ProbeID ILMN_1794863): 2,88 | logFC(D142_PHE - D142_BAS) OKL38 (ProbeID ILMN_1795963): 2,72 | logFC(D142_PHE - D142_BAS) HIST1H2BK (ProbeID ILMN_1796179): 2,23 | logFC(D142_PHE - D142_BAS) GDF5 (ProbeID ILMN_1796471): -2,25 | logFC(D142_PHE - D142_BAS) C3orf58 (ProbeID ILMN_1797372): 2,45 | logFC(D142_PHE - D142_BAS) HMGCS1 (ProbeID ILMN_1797728): -2,20 | logFC(D142_PHE - D142_BAS) AK3L1 (ProbeID ILMN_1798249): 3,18 | logFC(D142_PHE - D142_BAS) CXCR7 (ProbeID ILMN_1798360): 2,96 | logFC(D142_PHE - D142_BAS) MCM6 (ProbeID ILMN_1798654): -2,31 | logFC(D142_PHE - D142_BAS) RARRES1 (ProbeID ILMN_1800091): -2,22 | logFC(D142_PHE - D142_BAS) HMOX1 (ProbeID ILMN_1800512): 2,82 | logFC(D142_PHE - D142_BAS) LDB2 (ProbeID ILMN_1800697, PHE vs BAS): -2,38 | logFC(D142_PHE - D142_BAS) PLIN2 (ProbeID ILMN_1801077): 3,49 | logFC(D142_PHE - D142_BAS) RLF (ProbeID ILMN_1801156): 2,05 | logFC(D142_PHE - D142_BAS) SIAH2 (ProbeID ILMN_1801313): 2,15 | logFC(D142_PHE - D142_BAS) METRNL (ProbeID ILMN_1801610): 2,03 | logFC(D142_PHE - D142_BAS) CCNB2 (ProbeID ILMN_1801939, PHE vs BAS): -2,66 | logFC(D142_PHE - D142_BAS) GLT8D2 (ProbeID ILMN_1802654): -2,05 | logFC(D142_PHE - D142_BAS) FAM162A (ProbeID ILMN_1803647): 2,36 | logFC(D142_PHE - D142_BAS) CXCL12 (ProbeID ILMN_1803825, PHE vs BAS): -2,38 | logFC(D142_PHE - D142_BAS) VEGFA (ProbeID ILMN_1803882): 4,07 | logFC(D142_PHE - D142_BAS) SRXN1 (ProbeID ILMN_1804822): 2,32 | logFC(D142_PHE - D142_BAS) SLC14A1 (ProbeID ILMN_1805561, PHE vs BAS): -2,57 | logFC(D142_PHE - D142_BAS) PFKP (ProbeID ILMN_1805737): 2,32 | logFC(D142_PHE - D142_BAS) TK1 (ProbeID ILMN_1806037): -2,14 | logFC(D142_PHE - D142_BAS) SLC6A8 (ProbeID ILMN_1806349): 2,45 | logFC(D142_PHE - D142_BAS) FMO3 (ProbeID ILMN_1808657, PHE vs BAS): -2,85 | logFC(D142_PHE - D142_BAS) PGF (ProbeID ILMN_1809813): 3,28 | logFC(D142_PHE - D142_BAS) NDRG1 (ProbeID ILMN_1809931): 4,06 | logFC(D142_PHE - D142_BAS) P8 (ProbeID ILMN_1810560): 2,09 | logFC(D142_PHE - D142_BAS) KIAA0367 (ProbeID ILMN_1810628): -2,12 | logFC(D142_PHE - D142_BAS) PDE5A (ProbeID ILMN_1810836, PHE vs BAS): -3,04 | logFC(D142_PHE - D142_BAS) LOC402221 (ProbeID ILMN_1811909): -2,18 | logFC(D142_PHE - D142_BAS) FAM20A (ProbeID ILMN_1812091): -2,34 | logFC(D142_PHE - D142_BAS) HIST1H2BK (ProbeID ILMN_1813314): 2,41 | logFC(D142_PHE - D142_BAS) KIAA1199 (ProbeID ILMN_1813704, PHE vs BAS): -4,06 | logFC(D142_PHE - D142_BAS) FKSG30 (ProbeID ILMN_1814998): -2,20 | logFC(D142_PHE - D142_BAS) PIM1 (ProbeID ILMN_1815023): 2,29 | logFC(D142_PHE - D142_BAS) PLAGL1 (ProbeID ILMN_1815121): 2,24 | logFC(D142_PHE - D142_BAS) DHCR7 (ProbeID ILMN_1815626): -2,12 | logFC(D142_PHE - D142_BAS) ERCC2 (ProbeID ILMN_1815859): -2,17 | logFC(D142_PHE - D142_BAS) (ProbeID ILMN_1816244, no gene name printed): 2,02
